Where “and” joins values, the source holds several entries; their conditions need not be identical. Equal entries are not always repeated. Inconclusive results and toxic doses are left out.
System: CD2F1 mice, L1210 leukemia ip, survival T/C
Test: NCI In Vivo Anticancer Drug Screen. Data for tumor model L1210 Leukemia (intraperitoneal) in CD2F1 (CDF1) mice
Settings: endpoint: median survival time, higher = longer survival
Method in brief: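 Read-out first: treated-group measurement over vehicle-control measurement, expressed as a ratio. Animals bore a transplanted tumor line and were dosed with compound or vehicle.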

COc1cc([C@@H]2c3cc4c(cc3[C@@H](OC3OC5COC(C)OC5C(O)C3O)[C@H]3COC(=O)[C@H]23)OCO4)cc(OC)c1O (stereo partly drawn)
T/C (dose: 16.0 mg/kg/injection, schedule: Q04DX003 (ip), vehicle: other): 212 % of control | T/C (dose: 16.0 mg/kg/injection, schedule: Q08DX002 (ip), vehicle: other): 200 % of control | T/C (dose: 32.0 mg/kg/injection, schedule: Q01DX001 (ip), vehicle: other): 162 % of control | T/C (dose: 32.0 mg/kg/injection, schedule: Q01DX001 (oral), vehicle: Klucel (hydroxypropylcellulose) (HPC)): 105 % of control | T/C (dose: 32.0 mg/kg/injection, schedule: Q01DX001 (sc), vehicle: other): 150 % of control | T/C (dose: 32.0 mg/kg/injection, schedule: Q01DX009 (ip), vehicle: other): 87 % of control | T/C (dose: 32.0 mg/kg/injection, schedule: Q01DX009 (ip), vehicle: saline): 110 % of control | T/C (dose: 32.0 mg/kg/injection, schedule: Q01DX009 (oral), vehicle: Klucel (hydroxypropylcellulose) (HPC)): 122 % of control | T/C (dose: 32.0 mg/kg/injection, schedule: Q01DX009 (sc), vehicle: other): 87 % of control | T/C (dose: 32.0 mg/kg/injection, schedule: Q03HX008 (oral), vehicle: Klucel (hydroxypropylcellulose) (HPC)): 122 % of control | T/C (dose: 32.0 mg/kg/injection, schedule: Q03HX016 (oral), vehicle: Klucel (hydroxypropylcellulose) (HPC)): 116 % of control | T/C (dose: 32.0 mg/kg/injection, schedule: Q04DX003 (ip), vehicle: other): 206 % of control | T/C (dose: 32.0 mg/kg/injection, schedule: Q04DX003 (oral), vehicle: Klucel (hydroxypropylcellulose) (HPC)): 105 % of control | T/C (dose: 32.0 mg/kg/injection, schedule: Q08DX002 (ip), vehicle: other): 200 % of control | T/C (dose: 32.0 mg/kg/injection, schedule: Q08DX002 (oral), vehicle: Klucel (hydroxypropylcellulose) (HPC)): 111 % of control | T/C (dose: 64.0 mg/kg/injection, schedule: Q01DX001 (ip), vehicle: other): 218 % of control | T/C (dose: 64.0 mg/kg/injection, schedule: Q01DX001 (oral), vehicle: Klucel (hydroxypropylcellulose) (HPC)): 111 % of control | T/C (dose: 64.0 mg/kg/injection, schedule: Q01DX001 (sc), vehicle: other): 187 % of control | T/C (dose: 64.0 mg/kg/injection, schedule: Q01DX009 (ip), vehicle: saline): 102 % of control | T/C (dose: 64.0 mg/kg/injection, schedule: Q01DX009 (oral), vehicle: other): 162 % of control | T/C (dose: 64.0 mg/kg/injection, schedule: Q03HX008 (oral), vehicle: Klucel (hydroxypropylcellulose) (HPC)): 116 % of control | T/C (dose: 64.0 mg/kg/injection, schedule: Q03HX024 (oral), vehicle: Klucel (hydroxypropylcellulose) (HPC)): 94 % of control | T/C (dose: 64.0 mg/kg/injection, schedule: Q04DX003 (ip), vehicle: other): 156 % of control | T/C (dose: 64.0 mg/kg/injection, schedule: Q04DX003 (oral), vehicle: Klucel (hydroxypropylcellulose) (HPC)): 122 % of control | T/C (dose: 64.0 mg/kg/injection, schedule: Q08DX002 (ip), vehicle: other): 212 % of control | T/C (dose: 64.0 mg/kg/injection, schedule: Q08DX002 (oral), vehicle: Klucel (hydroxypropylcellulose) (HPC)): 111 % of control | T/C (dose: 128.0 mg/kg/injection, schedule: Q01DX001 (ip), vehicle: other): 112 % of control | T/C (dose: 128.0 mg/kg/injection, schedule: Q01DX001 (oral), vehicle: Klucel (hydroxypropylcellulose) (HPC)): 111 % of control | T/C (dose: 128.0 mg/kg/injection, schedule: Q01DX001 (sc), vehicle: other): 87 % of control | T/C (dose: 128.0 mg/kg/injection, schedule: Q03HX008 (oral), vehicle: Klucel (hydroxypropylcellulose) (HPC)): 122 % of control | T/C (dose: 128.0 mg/kg/injection, schedule: Q03HX016 (oral), vehicle: Klucel (hydroxypropylcellulose) (HPC)): 150 % of control | T/C (dose: 128.0 mg/kg/injection, schedule: Q04DX003 (ip), vehicle: other): 118 % of control | T/C (dose: 128.0 mg/kg/injection, schedule: Q04DX003 (oral), vehicle: Klucel (hydroxypropylcellulose) (HPC)): 116 % of control | T/C (dose: 128.0 mg/kg/injection, schedule: Q08DX002 (ip), vehicle: other): 175 % of control | T/C (dose: 128.0 mg/kg/injection, schedule: Q08DX002 (oral), vehicle: Klucel (hydroxypropylcellulose) (HPC)): 111 % of control | T/C (dose: 256.0 mg/kg/injection, schedule: Q01DX001 (oral), vehicle: Klucel (hydroxypropylcellulose) (HPC)): 122 % of control | T/C (dose: 256.0 mg/kg/injection, schedule: Q01DX001 (oral), vehicle: other): 118 % of control and 112 % of control | T/C (dose: 256.0 mg/kg/injection, schedule: Q01DX001 (sc), vehicle: other): 87 % of control | T/C (dose: 256.0 mg/kg/injection, schedule: Q04DX003 (oral), vehicle: Klucel (hydroxypropylcellulose) (HPC)): 122 % of control | T/C (dose: 256.0 mg/kg/injection, schedule: Q08DX002 (oral), vehicle: Klucel (hydroxypropylcellulose) (HPC)): 111 % of control | T/C (dose: 512.0 mg/kg/injection, schedule: Q01DX001 (oral), vehicle: Klucel (hydroxypropylcellulose) (HPC)): 122 % of control | T/C (dose: 512.0 mg/kg/injection, schedule: Q01DX001 (oral), vehicle: other): 150 % of control | T/C (dose: 512.0 mg/kg/injection, schedule: Q01DX009 (oral), vehicle: other): 100 % of control and 112 % of control | T/C (dose: 512.0 mg/kg/injection, schedule: Q08DX002 (oral), vehicle: Klucel (hydroxypropylcellulose) (HPC)): 105 % of control | T/C (dose: 1024.0 mg/kg/injection, schedule: Q01DX001 (oral), vehicle: Klucel (hydroxypropylcellulose) (HPC)): 122 % of control | T/C (dose: 1024.0 mg/kg/injection, schedule: Q01DX001 (oral), vehicle: other): 150 % of control | T/C (dose: 1024.0 mg/kg/injection, schedule: Q01DX009 (oral), vehicle: other): 87 % of control and 100 % of control | T/C (dose: 1024.0 mg/kg/injection, schedule: Q08DX002 (oral), vehicle: Klucel (hydroxypropylcellulose) (HPC)): 111 % of control

From PubChem BioAssay AID256 (DTP/NCI, 2004)
